Assay results as given in PubChem BioAssay (NCI).
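Cultured in 96-well plates, cells were exposed to test compound for 48 hours across five concentrations. TGI: total growth inhibition.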

Legend:
Assay in all cases: DTP human tumour cell line panel, 48 h
786-0 renal = system: 786-0 renal
A498 renal = system: A498 renal
A549 NSCLC = system: A549 NSCLC
ACHN renal = system: ACHN renal
BT-549 breast = system: BT-549 breast
CAKI-1 renal = system: CAKI-1 renal
CCRF-CEM leukemia = system: CCRF-CEM leukemia
COLO 205 colon = system: COLO 205 colon
DU-145 prostate = system: DU-145 prostate
EKVX NSCLC = system: EKVX NSCLC
HCC-2998 colon = system: HCC-2998 colon
HCT-116 colon = system: HCT-116 colon
HCT-15 colon = system: HCT-15 colon
HL-60(TB) leukemia = system: HL-60(TB) leukemia
HOP-62 NSCLC = system: HOP-62 NSCLC
HOP-92 NSCLC = system: HOP-92 NSCLC
HS 578T breast = system: HS 578T breast
HT29 colon = system: HT29 colon
IGROV1 ovarian = system: IGROV1 ovarian
K-562 leukemia = system: K-562 leukemia
KM12 colon = system: KM12 colon
LOX IMVI melanoma = system: LOX IMVI melanoma
M14 melanoma = system: M14 melanoma
MCF7 breast = system: MCF7 breast
MDA-MB-231 breast = system: MDA-MB-231 breast
MDA-MB-435 = system: MDA-MB-435
MDA-N = system: MDA-N
MOLT-4 leukemia = system: MOLT-4 leukemia
NCI-H226 lung = system: NCI-H226 lung
NCI-H23 lung = system: NCI-H23 lung
NCI-H460 lung = system: NCI-H460 lung
NCI-H522 lung = system: NCI-H522 lung
NCI/ADR-RES ovarian = system: NCI/ADR-RES ovarian
OVCAR-3 ovarian = system: OVCAR-3 ovarian
OVCAR-4 ovarian = system: OVCAR-4 ovarian
OVCAR-5 ovarian = system: OVCAR-5 ovarian
OVCAR-8 ovarian = system: OVCAR-8 ovarian
PC-3 prostate = system: PC-3 prostate
RPMI-8226 leukemia = system: RPMI-8226 leukemia
RXF 393 renal = system: RXF 393 renal
SF-268 CNS = system: SF-268 CNS
SF-295 CNS = system: SF-295 CNS
SF-539 CNS = system: SF-539 CNS
SK-MEL-2 melanoma = system: SK-MEL-2 melanoma
SK-MEL-28 melanoma = system: SK-MEL-28 melanoma
SK-MEL-5 melanoma = system: SK-MEL-5 melanoma
SK-OV-3 ovarian = system: SK-OV-3 ovarian
SN12C renal = system: SN12C renal
SNB-19 CNS = system: SNB-19 CNS
SNB-75 CNS = system: SNB-75 CNS
SR leukemia = system: SR leukemia
SW-620 colon = system: SW-620 colon
T-47D breast = system: T-47D breast
TK-10 renal = system: TK-10 renal
U251 CNS = system: U251 CNS
UACC-257 melanoma = system: UACC-257 melanoma
UACC-62 melanoma = system: UACC-62 melanoma
UO-31 renal = system: UO-31 renal
MALME-3M melanoma = system: MALME-3M melanoma

Measured: TGI

C[C@@H]1CCC2[C@@H](C)[C@@H](O[C@H]3O[C@@H]4O[C@@]5(C)CCC6[C@H](C)CCC([C@H]3C)[C@]64OO5)O[C@@H]3O[C@@]4(C)CCC1[C@@]23OO4 (stereo not given in full)
> 5.22 µM: HL-60(TB) leukemia
> 7.26 µM: RPMI-8226 leukemia
not listed: MALME-3M melanoma
> 25 µM: all other assays above

C=C(C)CNCCN
not listed: COLO 205 colon | HCC-2998 colon | MCF7 breast | RPMI-8226 leukemia | SF-539 CNS | SK-OV-3 ovarian | SNB-75 CNS
> 100 µM: all other assays above
